Measured values: ChEMBL document CHEMBL5316306 (J Med Chem, 2023)
Calls of active or inactive are those of the source. The calls are words filed in the database; no cut-off is given here.

Key:
[1] = target: T1, Proteasome Macropain subunit MB1 (Homo sapiens, UniProt P28074); experiment: Inhibition of human 20s constitutive proteasome beta-5c
T1 sequence (P28074 whole entry): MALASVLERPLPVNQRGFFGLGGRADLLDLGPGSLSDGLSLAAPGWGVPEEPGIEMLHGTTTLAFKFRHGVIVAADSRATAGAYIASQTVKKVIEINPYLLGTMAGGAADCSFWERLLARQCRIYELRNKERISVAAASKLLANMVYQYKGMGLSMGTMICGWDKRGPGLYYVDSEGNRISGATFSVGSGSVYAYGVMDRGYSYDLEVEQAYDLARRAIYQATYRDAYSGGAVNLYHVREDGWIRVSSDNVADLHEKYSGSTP

[2] = target: T2, Proteasome subunit beta type-8 (Homo sapiens, UniProt P28062); experiment: Inhibition of human 20s immunoproteasome beta-5i subunit
T2 sequence (P28062 whole entry): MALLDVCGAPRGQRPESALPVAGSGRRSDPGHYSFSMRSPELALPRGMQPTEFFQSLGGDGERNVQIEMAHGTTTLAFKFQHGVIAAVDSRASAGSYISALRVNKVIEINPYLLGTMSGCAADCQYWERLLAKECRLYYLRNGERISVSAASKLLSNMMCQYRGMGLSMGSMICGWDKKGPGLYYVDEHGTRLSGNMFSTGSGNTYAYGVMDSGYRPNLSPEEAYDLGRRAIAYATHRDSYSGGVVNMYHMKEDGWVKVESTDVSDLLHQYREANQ

[3] = target: T1, Proteasome Macropain subunit MB1; experiment: Inhibition of 20s constitutive proteasome beta-5c (unknown origin)
[4] = target: T2, Proteasome subunit beta type-8; experiment: Inhibition of 20s immunoproteasome beta-5i subunit (unknown origin)
[5] = target: T3, Proteasome Macropain subunit MB1 (Homo sapiens) (UniProt P28074); experiment: Inhibition of 20s constitutive proteasome beta-5c (unknown origin) assessed as recovery half life time
T3 sequence (whole entry): T1 sequence (P28074 whole entry)

[6] = target: T3, Proteasome Macropain subunit MB1 (Homo sapiens); experiment: Time dependent inhibition of human 20s constitutive proteasome beta-5c assessed as restoration of enzyme activity at 10 nM using suc-LLVY-AMC as substrate; conditions: time <= 90.0 min, TDE = time-dependent effect
HepG2 = experiment: Cytotoxicity against human HepG2 cells after 72 hrs by celltitre-glo assay; type: functional, cell-based; conditions: HepG2, 72 h
MM1.S [7] = experiment: Cytotoxicity against human MM1.S cells after 72 hrs by celltitre-glo assay; type: functional, cell-based
RPMI-8226 [8] = experiment: Cytotoxicity against human RPMI-8226 cells after 72 hrs by celltitre-glo assay; type: functional, cell-based; conditions: RPMI-8226, 72 h
[9] = target: T4, Proteasome subunit beta type-8 (Homo sapiens) (UniProt P28062); conditions: dose 250.0 nM, time <= 90.0 min
T4 sequence (whole entry): T2 sequence (P28062 whole entry)

MM1.S [10] = experiment: Synergistic cytotoxic activity against human MM1.S cells after 72 hrs in presence of 0.01 uM of (S)-(3-((2-(2-(1H-indol-3-yl)-2-oxoacetamido)-4-(tert-butylamino)-4-oxobutanamido)methyl)phenyl)boronic acid by celltitre-glo assay; type: functional, cell-based
RPMI-8226 [11] = experiment: Synergistic cytotoxic activity against human RPMI-8226 cells after 72 hrs in presence of 0.5 uM of (S)-(3-((2-(2-(1H-indol-3-yl)-2-oxoacetamido)-4-(tert-butylamino)-4-oxobutanamido)methyl)phenyl)boronic acid by celltitre-glo assay; type: functional, cell-based
[12] = target: T5, Proteasome subunit beta type-9 (Homo sapiens, UniProt P28065); experiment: Inhibition of human 20s immunoproteasome beta-1i subunit
T5 sequence (P28065 whole entry): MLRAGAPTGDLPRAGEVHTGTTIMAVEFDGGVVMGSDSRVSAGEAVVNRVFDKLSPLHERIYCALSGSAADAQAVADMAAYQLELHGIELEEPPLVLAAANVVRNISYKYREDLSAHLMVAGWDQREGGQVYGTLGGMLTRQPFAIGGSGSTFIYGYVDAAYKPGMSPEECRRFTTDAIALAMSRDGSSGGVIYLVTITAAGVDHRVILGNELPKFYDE

[13] = target: T6, Proteasome subunit beta type-10 (Homo sapiens, UniProt P40306); experiment: Inhibition of human 20s immunoproteasome beta-2i subunit
T6 sequence (P40306 whole entry): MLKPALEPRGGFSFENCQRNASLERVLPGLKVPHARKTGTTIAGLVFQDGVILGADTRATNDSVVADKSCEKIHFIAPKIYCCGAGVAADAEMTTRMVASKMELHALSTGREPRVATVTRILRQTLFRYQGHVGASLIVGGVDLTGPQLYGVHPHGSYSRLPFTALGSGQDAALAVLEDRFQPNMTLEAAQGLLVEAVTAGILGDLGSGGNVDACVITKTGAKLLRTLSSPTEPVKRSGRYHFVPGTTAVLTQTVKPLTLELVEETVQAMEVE

PBMC = experiment: Cytotoxicity against human PBMC cells expressing 20s immunoproteasome beta-5i after 72 hrs by celltitre-glo assay; type: functional, cell-based
[14] = target: T3, Proteasome Macropain subunit MB1 (Homo sapiens); experiment: Inhibition of human 20s constitutive proteasome beta-5c assessed as restoration of enzyme activity at 2 nM incubated for 1 hr followed by compound removal by dialysis measured after 1 hr
[15] = target: T3, Proteasome Macropain subunit MB1 (Homo sapiens); experiment: Time dependent inhibition of human 20s constitutive proteasome beta-5c assessed as restoration of enzyme activity at 10 nM using suc-LLVY-AMC as substrate incubated upto 90 mins
[16] = target: T4, Proteasome subunit beta type-8 (Homo sapiens); experiment: Time dependent inhibition of human 20s immunoproteasome beta-5i subunit assessed as restoration of enzyme activity at 250 nM using Ac-ANW-AMC as substrate incubated upto 90 mins
[17] = target: Procathepsin L (Homo sapiens) (UniProt P07711); experiment: Inhibition of human cathepsin L at 100 uM
Trypsin (Homo sapiens) = Trypsin (Homo sapiens) (UniProt P07477+P07478+P35030); experiment: Inhibition of human trypsin at 33.3 uM; type: protein assay
[18] = target: Chymotrypsin (Homo sapiens) (UniProt Q99895+P17538+P40313+Q6GPI1); experiment: Inhibition of human chymotrypsin at 11.1 uM; type: protein assay
[19] = target: T3, Proteasome Macropain subunit MB1 (Homo sapiens); experiment: Inhibition of 20s constitutive proteasome beta-5c in human HepG2 cells incubated by proteasome glo assay kit analysis; type: cell-based; conditions: time <= 1.0 hrs
[20] = target: T4, Proteasome subunit beta type-8 (Homo sapiens); experiment: Inhibition of 20s immunoproteasome beta-5i in human PBMC cells incubated by proteasome glo assay kit analysis; type: cell-based; conditions: time <= 1.0 hrs
MM1.S [21] = experiment: Synergistic cytotoxic activity against human MM1.S cells after 72 hrs in presence of 0.02 uM of (S)-N5-(tert-butyl)-N1-((S)-1-(((4-fluoronaphthalen-1-yl)methyl)amino)-3-methoxy-1-oxopropan-2-yl)-2-((4-methylphenyl)sulfonamido)pentanediamide by celltitre-glo assay; type: functional, cell-based
RPMI-8226 [22] = experiment: Synergistic cytotoxic activity against human RPMI-8226 cells after 72 hrs in presence of 0.25 uM of (S)-N5-(tert-butyl)-N1-((S)-1-(((4-fluoronaphthalen-1-yl)methyl)amino)-3-methoxy-1-oxopropan-2-yl)-2-((4-methylphenyl)sulfonamido)pentanediamide by celltitre-glo assay; type: functional, cell-based; conditions: RPMI-8226, 72 h

Sequence of Procathepsin L (Homo sapiens) (P07711 114-333 limits assumed): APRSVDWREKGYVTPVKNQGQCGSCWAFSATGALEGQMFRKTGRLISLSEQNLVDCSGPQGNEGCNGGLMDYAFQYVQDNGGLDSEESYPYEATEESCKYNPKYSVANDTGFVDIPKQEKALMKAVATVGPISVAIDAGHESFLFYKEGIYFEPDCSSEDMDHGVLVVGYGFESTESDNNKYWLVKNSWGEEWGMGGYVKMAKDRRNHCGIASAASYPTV

| SMILES | IC50 [1] [µM] | IC50 [2] [µM] | further results |
| --- | --- | --- | --- |
| CC(C)(C)NC(=O)C[C@H](NC(=O)c1cc(Cl)ccc1Cl)C(=O)NCc1cccc(B(O)O)c1 | 1.4 | 57.7 | – |
| COc1ccc(Cc2noc(CN(C(=O)COc3ccc(Br)cc3)C(C)C)n2)cc1OC | – | – | IC50 [3]: 0.037 µM |
| CCCc1ccc(OCC(=O)N(Cc2nc(-c3cccnc3)no2)C(C)C)cc1 | 0.005 | > 100 | IC50 [3]: 0.027 µM; IC50 [4]: 2.17 µM |
| Cc1ccc(S(=O)(=O)N[C@@H](CC(=O)NC(C)(C)C)C(=O)NCc2cccs2)cc1 | > 100 | > 100 | – |
| Cc1cc(C(=O)N[C@@H](CC(=O)NC(C)(C)C)C(=O)NCc2cccc(B(O)O)c2)no1 | 5.9 | > 100 | – |
| Cc1ccc(S(=O)(=O)N[C@@H](CC(=O)NC(C)(C)C)C(=O)NCc2cccc(C(=O)O)c2)cc1 | > 100 | > 100 | – |
| CC(C)C[C@H](NC(=O)CN1CCOCC1)C(=O)N[C@@H](C[C@H]1CC[C@H](C2CCCCC2)CC1)C(=O)N[C@@H](Cc1ccccc1)C(=O)N[C@@H](C)C(=O)[C@@]1(C)CO1 | – | – | IC50 [4]: 22.8 µM |
| Cc1ncc(C(=O)N[C@@H](CC(=O)NC(C)(C)C)C(=O)NCc2cccc(B(O)O)c2)s1 | > 100 | > 100 | – |
| Cc1ccc(S(=O)(=O)N[C@@H](CC(=O)NC(C)(C)C)C(=O)Nc2ccc(B(O)O)cc2)cc1 | > 100 | > 100 | – |
| CC(C)(C)NC(=O)C[C@H](NC(=O)c1cnccn1)C(=O)NCc1cccc(B(O)O)c1 | > 100 | > 100 | – |
| CC(C)(C)NC(=O)C[C@H](NC(=O)c1ccccc1)C(=O)NCc1cccc(B(O)O)c1 | 3.8 | > 100 | – |
| CC(C)(C)NC(=O)C[C@H](NC(=O)CCc1ccc(F)cc1)C(=O)NCc1cccc(B(O)O)c1 | 0.75 | 47.9 | – |
| Cc1ccc(S(=O)(=O)N[C@@H](CC(=O)NC(C)(C)C)C(=O)NCc2ccc(B(O)O)cc2)cc1 | > 100 | > 100 | – |
| Cc1ccc(S(=O)(=O)N[C@@H](CC(=O)NC(C)(C)C)C(=O)NCc2cccc(C(F)(F)F)c2)cc1 | > 100 | > 100 | – |
| Cc1ccc(S(=O)(=O)N[C@@H](CC(=O)NC(C)(C)C)C(=O)NCc2cccc(B(O)O)c2)cc1 | 0.21 | > 100 | – |
| COC[C@H](NC(=O)C(=O)c1c[nH]c2ccccc12)C(=O)NCc1cccc(B(O)O)c1 | 3 | 45.2 | – |
| Cc1ccc(S(=O)(=O)N[C@@H](CC(=O)NC(C)(C)C)C(=O)NCc2ccccc2)cc1 | > 100 | > 100 | – |

| SMILES | IC50 [1] [µM] | IC50 [2] [µM] | further results |
| --- | --- | --- | --- |
| Cc1ccc(S(=O)(=O)N[C@@H](CC(=O)NC(C)(C)C)C(=O)NCc2cccc(O)c2)cc1 | > 100 | > 100 | – |
| CC(C)(C)NC(=O)C[C@H](NC(=O)Cc1c[nH]c2ccccc12)C(=O)NCc1cccc(B(O)O)c1 | 0.7 | 69.2 | – |
| Cc1ccc(S(=O)(=O)N[C@@H](CC(=O)NC(C)(C)C)C(=O)NCc2ccc(B(O)O)s2)cc1 | > 100 | > 100 | – |
| CC(C)(C)NC(=O)C[C@H](NC(=O)c1cc(-c2ccccc2)ccn1)C(=O)NCc1cccc(B(O)O)c1 | 3.8 | 22.8 | – |
| Cc1ccc(S(=O)(=O)N[C@@H](CC(=O)NC(C)(C)C)C(=O)NCc2ccc(B(O)O)o2)cc1 | 2.6 | 57.2 | – |
| CC(C)(C)NC(=O)C[C@H](NC(=O)C(=O)C1CC1)C(=O)NCc1cccc(B(O)O)c1 | 24.1 | > 100 | – |
| CC(C)(C)NC(=O)C[C@H](NC(=O)CN1CCOCC1)C(=O)NCc1cccc(B(O)O)c1 | > 100 | > 100 | – |
| Cc1ccc(S(=O)(=O)N[C@@H](CC(=O)NC(C)(C)C)C(=O)NCc2ccco2)cc1 | > 100 | > 100 | – |
| Cc1ccc(S(=O)(=O)N[C@@H](CC(=O)NC(C)(C)C)C(=O)Nc2cccc(B(O)O)c2)cc1 | > 100 | > 100 | – |
| CC(C)C[C@H](NC(=O)[C@H](Cc1ccccc1)NC(=O)c1cnccn1)B(O)O [BORTEZOMIB] | – | – | TIME [5]: 1.83 h; TDI [6]: Tde; EC50 (HepG2): 0.013 µM; EC50 (MM1.S [7]): 0.002 µM; EC50 (RPMI-8226 [8]): 0.004 µM; TDI [9]: Tde |
| COC[C@H](NC(=O)c1cc(C)on1)C(=O)N[C@@H](COC)C(=O)N[C@@H](CC(C)C)C(=O)[C@@]1(C)CO1 | – | – | IC50 [3]: 0.02 µM; IC50 [4]: 0.3 µM |
| COC[C@H](NC(=O)[C@H](CCC(=O)NC(C)(C)C)NS(=O)(=O)c1ccc(C)cc1)C(=O)NCc1ccc(F)c2ccccc12 | – | – | EC50 (MM1.S [7]): 0.125 µM; EC50 (RPMI-8226 [8]): 0.69 µM; EC50 (MM1.S [10]): 0.125 µM; EC50 (RPMI-8226 [11]): 0.006 µM |
| CC(C)(C)NC(=O)CC[C@H](NC(=O)C(=O)c1c[nH]c2ccccc12)C(=O)NCc1cccc(B(O)O)c1 | 0.085 | 11.3 | IC50 [12]: > 33.3 µM; IC50 [13]: > 33.3 µM; EC50 (HepG2): 49.1 µM; EC50 (MM1.S [7]): 0.76 µM; EC50 (RPMI-8226 [8]): 15 µM |
| Cc1ccc(S(=O)(=O)N[C@@H](CC(=O)NC(C)(C)C)C(=O)NCc2cccc(F)c2)cc1 | > 100 | > 100 | – |
| CC(C)(C)NC(=O)C[C@H](NC(=O)C(=O)c1ccccc1)C(=O)NCc1cccc(B(O)O)c1 | 0.24 | > 100 | – |
| CC(C)(C)NC(=O)C[C@H](NC(=O)C(=O)c1c[nH]c2ccccc12)C(=O)NCc1cccc(B(O)O)c1 | 0.01 | 7.1 | EC50 (PBMC): > 50 µM; IC50 [12]: > 33.3 µM; IC50 [13]: > 33.3 µM; inhibition [14]: inactive; TDI [15]: inactive; TDI [16]: inactive; inhibition [17]: inactive; inhibition (Trypsin (Homo sapiens)): inactive; inhibition [18]: inactive; inhibition [19]: Dose-Dependent Effect; inhibition [20]: Dose-Dependent Effect; EC50 (HepG2): 3.2 µM; EC50 (MM1.S [7]): 0.057 µM; EC50 (RPMI-8226 [8]): 1.67 µM; EC50 (MM1.S [21]): 0.01 µM; EC50 (RPMI-8226 [22]): 0.173 µM |
